# Measured values published in patent US9993447B2, “Systems and methods for increasing agmatine cellular uptake by oral administration” (priority 2015, dated 2018).
# Tests used:
# [1] = 300 mg daily for 6 weeks, young healthy trained athletes; cited from earlier work
# [2] = Titration of 1% agmatine salt solutions with aqueous 0.1N HCl; type: physicochemical; details: 1% solution titrated with 0.1N HCl
# Method: FIG. 1 depicts a graphical representation of 1% agmatine salt solutions in a titration with an aqueous 0.1N HCl solution according to an embodiment of the present disclosure;
# (§1) The pH dependence has been evaluated in acidic as well as basic conditions. […] About 15 mL of 0.1N HCl may be used to lower the pH of agmatine phosphate at around 3 while other agmatine salts, at the same concentration and in the same measuring conditions, required approximately 2-4 mL to change to an acidic pH. The same kind of behavior was observed when solutions of agmatine salts were titrated with a solution of agmatine base. About 20 mL were required to make the pH alkaline (above 8) in the case of agmatine phosphate, while other agmatine salts required approximately 2-3 mL to achieve the same pH range. Taking these observations into consideration along with the fact that better uptake of agmatine is observed at a higher pH, it should be appreciated that agmatine dihydrochloride and agmatine phosphate may be more desirable agmatine salts than agmatine sulfate for improving bioavailability of orally administered agmatine.
# [3] = Titration of 1% agmatine salt solutions with 5% aqueous arginine base; type: physicochemical; details: 1% solution titrated with 5% arginine base, room temperature
# Method: FIG. 2 depicts a graphical representation of 1% agmatine salt solutions in a titration with an 5% aqueous arginine base solution at room temperature according to an embodiment of the present disclosure;
# as §1
# [4] = pH of 1% agmatine salt solutions in purified water at room temperature; type: physicochemical; details: 1% in purified water
# Description: Compounds and formulations according to embodiments of the present disclosure may provide a method to increase cellular uptake of agmatine in an animal or human. It should be appreciated that agmatine uptake may increase dramatically with increasing pH, and protonation of the amino group of agmatine is dependent on pH. The guanidinium group in agmatine has a pH of about 12.5 in aqueous solution while the amino group in agmatine has a pH of about 9. At the physiological pH, agmatine may be protonated and thus, requires transporters for uptake into the cells to occur. The fraction of the molecules having a single positive charge may increase as pH increases. […] This is reflected in FIGS. 1 and 2.
# pH of buffer media = type: physicochemical; details: room temperature
# Description: Crea-Trona® is also known as buffered creatine. During the fabrication process, AlzChem uses a double buffer from sodium carbonate and sodium bi-carbonate, both natural minerals, which creates an alkaline environment with a pH value between 8 and 12. Crea-Trona is more efficient than other types of creatine, including those with an alkaline pH-buffer (kre-alkalynes). The double buffer prevents the pH-value in the muscles from dropping rapidly during the workout. This may lead to a larger training volume and may stimulate faster recovery of the original pH-value after the workout.
# To maximize the benefits of oral administration of agmatine salts according to embodiments of the present disclosure, a buffer media may be used in formulations, or a stable mono-protonated or neutral form of such agmatine salts should be administered instead. As reflected in the formulations described above according to embodiments of the present disclosure, different buffer media have been used including Crea-Trona (such as that offered by AlzChem), arginine base, as well as Effer-Soda (such as that offered by SPI Pharma). However, it should be appreciated that other buffer media, such as potassium carbonate or potassium bicarbonate, may be utilized without departing from the present disclosure. Such buffer media may elevate the pH of the formulation. […]
# [5] = prior intake, trained young men; cited from earlier work
# [6] = approximately 150 g over three days, oral; cited from earlier work
# [7] = cited from earlier work
# [8] = concentration of 1 mM; cited from earlier work
# rat = rat experimental model; cited from earlier work
# [9] = oral, with high-intensity periodized resistance training; cited from earlier work
smiles,measurement,setting,value
"COc1c(O)c(C)c(C/C=C(\C)CC/C=C(\C)CC/C=C(\C)CC/C=C(\C)CC/C=C(\C)CC/C=C(\C)CC/C=C(\C)CC/C=C(\C)CC/C=C(\C)CCC=C(C)C)c(O)c1OC [Ubiquinol, ubiquinol]",Maximum power output versus placebo,[1],+0.08 W/kg bw
same,"Maximum power output versus placebo, relative change",[1],+2.5%
N=C(N)NCCCCN.O=P(O)(O)O [agmatine phosphate],Volume of 0.1N HCl used to lower the pH to around 3 (acidic pH),[2],About 15 mL
same,Volume of base solution required to make the pH alkaline (above 8),[3],About 20 mL
same,pH of 1% agmatine salt solution,[4],5.7
Cl.Cl.N=C(N)NCCCCN [agmatine dihydrochloride],pH of 1% agmatine salt solution,[4],6.4
"N=C(N)NCCCCN.O=S(=O)(O)O [agmatine sulfate, reference compound]",pH of 1% agmatine salt solution,[4],4.8
"N=C(N)NCCC[C@H](N)C(=O)O [Arginine base, arginine]",pH of arginine base in solution,pH of buffer media,around 10
O=C([O-])O.[Na+] [sodium bicarbonate],High-intensity intermittent exercise performance,[5],improved
O=C[C@H](O)[C@H](O)[C@H](O)CO [D-ribose],Rate of ATP replenishment over three days of rest compared to placebo sugar (maltodextrin),[6],greater
"N=C(N)NCCCCN [agmatine, (4-aminobutyl)guanidine]",pKa value of the guanadino group,[7],12.5
same,Cytotoxic effects,[8],no cytotoxic effects
same,Lethal dose,rat,1 to 10 mg/kg
"Nc1ncnc2c1ncn2[C@@H]1O[C@H](COP(=O)(O)OP(=O)(O)OP(=O)(O)O)[C@@H](O)[C@H]1O [ATP, adenosine triphosphate]","Muscle mass, strength, and power compared with placebo-matched control",[9],"increases muscle mass, strength, and power"
